The text below walks through data of patent publication US8378104B2 (OSI Pharmaceuticals, LLC, priority 2010, dated 2013).

The structures appear in SMILES notation. Counter-ions that a name gives are not always drawn.

For this assay, the target named is T1, TAK1-TAB1 fusion protein (Homo sapiens, UniProt O43318).
T1 construct: purchased Carna
T1 sequence (O43318 with tags, fused parts or gaps limits assumed): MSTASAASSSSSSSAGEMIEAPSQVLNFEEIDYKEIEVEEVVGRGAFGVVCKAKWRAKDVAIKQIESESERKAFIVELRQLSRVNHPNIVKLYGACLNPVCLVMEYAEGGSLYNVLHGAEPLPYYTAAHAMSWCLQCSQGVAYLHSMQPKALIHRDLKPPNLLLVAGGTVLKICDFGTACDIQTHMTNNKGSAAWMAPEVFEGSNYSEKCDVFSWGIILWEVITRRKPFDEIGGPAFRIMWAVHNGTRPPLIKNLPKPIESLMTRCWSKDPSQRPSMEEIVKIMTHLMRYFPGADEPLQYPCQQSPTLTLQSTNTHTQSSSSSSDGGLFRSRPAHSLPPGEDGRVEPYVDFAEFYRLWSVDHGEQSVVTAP
As to the kind of experiment: TAK1 biochemical assay (AlphaScreen, GST-MAP2K7 substrate). Particulars: TAK1-TAB1 fusion protein, GST-MAP2K7 substrate; read-out: mean TAK1 IC50 (Col. A). A general note: Alpha assays give light when donor and acceptor beads are brought close together.
The term IC50 denotes the concentration at which inhibition is half-maximal. With `CC(C)(C)OC(=O)N1CCC(n2cc(-c3cnc(N)c4oc(-c5cccc6ccsc56)cc34)cn2)CC1` [Example 17A], the IC50 was over 10 µM.
Turning to `N#Cc1cc(-c2cc3c(-c4cnn([C@H]5CC[C@H](O)CC5)c4)cnc(N)c3o2)ccc1N` [Example 407, 2-amino-5-{7-amino-4-[1-(trans-4-hydroxycyclohexyl)-1H-pyrazol-4-yl]furo[2,3-c]pyridin-2-yl}benzonitrile], the half-maximal inhibitory concentration (IC50) fell in the range of 0.1 to 1 µM.
As for `CC(=O)N1CCC(n2cc(-c3cnc(N)c4oc(-c5ccc6c(c5)C(=O)NC6=O)cc34)cn2)CC1` [Example 100, 5-{4-[1-(1-acetylpiperidin-4-yl)-1H-pyrazol-4-yl]-7-aminofuro[2,3-c]pyridin-2-yl}-1H-isoindole-1,3(2H)-dione], the half-inhibitory concentration (IC50) lay within 1 to 10 µM.
The value for `CSc1nc2cccc(-c3cc4c(-c5cnn(C6CCN(C(C)=O)CC6)c5)cnc(N)c4o3)c2s1` [Example 352, 1-[4-(4-{7-amino-2-[2-(methylsulfanyl)-1,3-benzothiazol-7-yl]furo[2,3-c]pyridin-4-yl}-1H-pyrazol-1-yl)piperidin-1-yl]ethanone trifluoroacetate] was 1 to 10 µM; that for `CC(=O)N1CCC(n2cc(-c3cnc(N)c4oc(-c5cnc6cnccn56)cc34)cn2)CC1` [Example 274, 1-(4-{4-[7-amino-2-(imidazol[1,2-a]pyrazin-3-yl)furo[2,3-c]pyridin-4-yl]-1H-pyrazol-1-yl}piperidin-1-yl)ethanone trifluoroacetic acid salt] was 1 to 10 µM; that for `CC(=O)N1CCC(n2cc(-c3cnc(N)c4oc(-c5coc6ccccc56)cc34)cn2)CC1` [Example 220, 1-(4-{4-[7-amino-2-(1-benzofuran-3-yl)furo[2,3-c]pyridin-4-yl]-1H-pyrazol-1-yl}piperidin-1-yl)ethanone bis(trifluoroacetate)] was 1 to 10 µM.
Consider `CC(=O)N1CCC(n2cc(-c3cnc(N)c4oc(-c5ccc(N)cc5)cc34)cn2)CC1` [Example 183, 1-(4-{4-[7-amino-2-(4-aminophenyl)furo[2,3-c]pyridin-4-yl]-1H-pyrazol-1-yl}piperidin-1-yl)ethanone], for which the IC50 lay within 1 to 10 µM.
The value for `Cc1nc(-c2cnc(N)c3oc(-c4csc5cnccc45)cc23)cs1` [Example 390, 4-(2-methyl-1,3-thiazol-4-yl)-2-(thieno[2,3-c]pyridin-3-yl)furo[2,3-c]pyridin-7-amine trifluoroacetate] was 1 to 10 µM; that for `Cc1n[nH]c(C)c1-c1cnc(N)c2oc(-c3csc4cnccc34)cc12` [Example 295, 4-(3,5-dimethyl-1H-pyrazol-4-yl)-2-thieno[2,3-c]pyridin-3-yl-furo[2,3-c]pyridin-7-ylamine] was 1 to 10 µM.
The value for `Nc1ncc(-c2cnn(C3CC=CC3)c2)c2cc(-c3cccc4cnccc34)oc12` [Example 72, 4-[1-(cyclopent-3-en-1-yl)-1H-pyrazol-4-yl]-2-(isoquinolin-5-yl)furo[2,3-c]pyridin-7-amine] was 0.1 to 1 µM; that for `Nc1ncc(-c2cnn(C3CCNCC3)c2)c2c(Cl)c(-c3cccc4ccsc34)oc12` [Example 13, 2-(1-benzothiophen-7-yl)-3-chloro-4-[1-(piperidin-4-yl)-1H-pyrazol-4-yl]furo[2,3-c]pyridin-7-amine hydrochloride] was under 0.1 µM.
To `Cc1nn(C[C@H](O)CO)cc1-c1cnc(N)c2oc(-c3csc4cnccc34)cc12` [Example 318, (S)-3-[4-(7-amino-2-thieno[2,3-d]pyridin-3-yl-furo[2,3-d]pyridin-4-yl)-3-methyl-pyrazol-1-yl]-propane-1,2-diol] belongs 1 to 10 µM.
Consider `CC(=O)N1CCC(n2cc(-c3cnc(N)c4oc(-c5cccc(S(=O)(=O)N(C)C)c5)cc34)cn2)CC1` [Example 134, 3-{4-[1-(1-acetylpiperidin-4-yl)-1H-pyrazol-4-yl]-7-aminofuro[2,3-c]pyridin-2-yl}-N,N-dimethylbenzenesulfonamide], for which the IC50 was in the range of 1 to 10 µM.
